One assay concerns Micrococcus luteus. Description: Disc agar diffusion assay. It is filed as cell-based. The protocol:
(§1) As a further test of an embodiment, the antibacterial properties of EIPE-1 were tested across a large panel of organisms. EIPE-1 was dissolved in DMSO, impregnated onto sterile filter paper disks, and DMSO served as the untreated control according to the following procedure: • 1. Prepare a 2.5 μg/μL stock solution of EIPE-1 by micro pipetting 200 μL of DMSO into 2.0 mL Eppendorf Tube containing 0.5 mg of EIPE-1. Dissolve with vortex agitation and store at 4° C. • 2. Use forceps to pick up sterile 6.0 mm blank paper disks. Make sure to touch only one side of disc as lightly as possible. While holding blank paper disc, deliver 10.0 μL of the 2.5 μg/μL EIPE-1 solution by touching the micropipette tip to the center of the blank paper disc. Lean the impregnated disc up against the side of a small sterile glass petri dish. Follow same procedure for DMSO control. Allow disks several hours to dry under flowing sterile air. • 3. Inoculate starter cultures using cells from working culture cultivated on Mueller-Hinton Agar (MHA; Difco Laboratories). Starters consist of ˜20 mL of Mueller-Hinton Broth (MHB; Difco Laboratories) in 125-mL culture flasks. Incubate starter cultures in an Excella E24 Benchtop Incubator Shaker (New Brunswick Scientific Co., Inc., Edison, N.J., USA) at 37° C. and 180 rpm for 15-18 hours. • 4. Pour at least 5.0 mL of NMB into 18-mL Kimax tubes. Use a Pasteur pipette to deliver enough of the starter culture cell suspension to reach an optical density (OD620) of 0.025 (Spectronic™ 20 optical spectrophotometer; Thermo Electron Corp., Madison, Wis., USA). Ensure that both transmittance and absorbance are set to 0.0 using a blank NMB sample. Incubate in rotary shaking incubator at 37° C. and 180 rpm until optical density reaches 0.1. • 5. Deliver 100 μL of test culture to the middle of a small 100 mm×15 mm Petri dish containing ˜⅛ in thickness of MHA. • 6. Saturate a sterile cotton swab with MHB by dipping the cotton swab into KIMAX® tube with MHB and then touch the swab to the north, south, east, and west side of the KIMAX® tube to remove excess broth. • 7. Streak the inoculum as follows: • a. Start in the center and make four straight lines to the 12, 3, 6, and 9 o'clock position on the petri dish. • b. Start at the 12 o'clock position and streak side to side all the way down the plate to the 6 o'clock position. […] Rotate the petri dish 90° and complete the same side to side streak all the way down the petri dish. • d. Complete step c. twice more. • e. Rotate petri dish 45° and complete the side-to-side streak. • f. Rotate petri dish 90° and complete the side-to-side streak. • 8. Use sterile forceps to transfer the DMSO control paper disc onto the agar surface and pat the paper disc down to ensure flush contact. Use the same technique to deliver EIPE-1 paper disc. • 9. Place petri dish at 4° C. for 1.0 hour to allow EIPE-1 diffusion in the absence of growth. • 10. Incubate petri dish at 37° C. for 18 hours. • 11. Observe for zones of growth inhibition surrounding disks. Measure diameter with electronic caliper and subtract 6.0-mm disc diameter. Results • a) Each organism was initially tested once to serve as a screen.
Background: In agar diffusion tests the substance spreads into inoculated agar from a disc or well.

Assay [1] concerns Serratia rubidaea ATCC 27593. As to the kind of experiment: Disc agar diffusion assay. Particulars: Group 1: Gram-negative organisms. It is filed as cell-based. The protocol: as §1
Assay [2] relates to Serratia marcescens ATCC 13880. As to the kind of experiment: Disc agar diffusion assay. It is filed as cell-based. Particulars: Group 1: Gram-negative organisms. As to the method:
as §1

The subject of the next assay is Bacillus cereus. Description: Disc agar diffusion assay. It is filed as cell-based. The protocol:
as §1

Assay [3] relates to Staphylococcus epidermidis. As to the kind of experiment: Disc agar diffusion assay. It is filed as cell-based. As to the method:
as §1

For assay [4], the system named is Cryptococcus neoformans serotype A strain H99. Description: Antifungal MIC assay. It is filed as cell-based. As to the method: Cryptococcus neoformans serotype A strain H99 as well as Candida ablicans strain SC5314, were readily available in the lab. The stock of cells is stored at −80° C. to preserve the fungi and prevent contamination. The cells were grown and maintained in yeast extract-peptone-dextrose (YPD) media (Difco). Cryptococcus or Candida cells were incubated in YPD broth for 18 hrs at 30° C., in a shaking incubator. After the incubation period, they were washed three times in sterile phosphate-buffered saline (PBS) to remove all remaining residue of YPD. The cells were then quantified by using trypan blue dye exclusion in a hemocytometer.
C. neoformans were suspended in RPMI with MOPS, 0.165M, at a concentration of 0.5×10^3 cells/mL. RPMI MOPS media was added to a 96-well plate in a volume of 100 μL to every well, with the exception of column 1. An additional 80 μL of RPMI MOPS was added to column 4 for a total of 180 μL/per well. Amphotericin B or EIPE-1 was added to columns […] with a volume of 20 μL at a concentration of 1 mg/mL. Contents were mixed, then serially diluted 100 μL down the plate until column 11. The last 100 μL was discarded, leaving column 12 blank. C. neoformans was added at a volume of 100 μL per well from column 4 to column 12, so the final volume of the wells was 200 μL. Plates were incubated at 35° C. in a humid incubator for 48 hrs.

The next assay has as its system MRSA. As to the kind of experiment: Kirby-Bauer disc diffusion assay. It is filed as cell-based, Staphylococcus aureus. Particulars: Staphylococcus aureus, 24-hour incubation at 37° C. As to the method:
The susceptibility of MRSA to EIPE-1 was determined by the Kirby-Bauer disc diffusion method. Using a cotton swab applicator, a lawn of the S. aureus clinical isolate was placed onto Mueller Hinton agar plates to cover the entire surface of the plate. Filter discs (size=6 mm) were added onto the bacterial lawn. EIPE-1, DBI, and DMSO (10 μL each) were then added onto the filter discs.
The efficacy of compound EIPE-1 was tested by the Kirby-Bauer disc assay. The Kirby-Bauer disc assay assesses the sensitivity of bacteria to antimicrobial agents. If the bacteria are sensitive to the antimicrobial being tested, then a zone of inhibition of bacterial growth is seen around the filter disc containing the antimicrobial. The Kirby-Bauer disc assay was used to test the antimicrobial efficacy of EIPE-1 against MRSA. EIPE-1 was reconstituted at 1 mg/mL in DMSO and serially diluted (10^−1 to 10^−5) after which 10 μL of each dilution (and DMSO as a solvent control) was added to a separate disc on an LB plate inoculated with a lawn of bacteria. The plates were incubated at 37° C. for 24 h, and the resulting radii zone sizes around each disc were then measured.

Setting [5] is: Group 2: Gram-positive organisms.

The term MIC denotes the lowest concentration found to suppress growth. `COC(=O)c1cc2c(C#Cc3ccc(OCCC[N+](C)(C)C)cc3)c(OC)c(OC)c(C#Cc3ccc(OCCC[N+](C)(C)C)cc3)c2n1C` [EIPE-1, 3,3′-((((5,6-dimethoxy-2-(methoxycarbonyl)-1-methyl-1H-indole-4,7-diyl)bis(ethyne-2,1-diyl))bis(4,1-phenylene))bis(oxy))bis(N,N,N-trimethylpropan-1-aminium) iodide]: the “susceptibility group in disc diffusion screen” value was “resistant” in the assay on Micrococcus luteus (setting [5]); “resistant” in assay [1]; “resistant” in assay [2]; “resistant” in the assay with Bacillus cereus (setting [5]); “susceptible” in assay [3] (Group 3: Gram-positive organisms). The zone of inhibition at 25 µg/disc with Micrococcus luteus (Micrococcus luteus, M. luteus, 25 μg per disk, zone minus disk diameter (6.0mm), read-out: Inhibition Zone Diameter (mm) ± SD) was determined as 1 ± 1 mm; with Bacillus cereus (Bacillus cereus, B. cereus, 25 μg per disk, zone minus disk diameter (6.0mm), read-out: Inhibition Zone Diameter (mm) ± SD) it was 0 mm; in assay [3] (Staphylococcus epidermidis, S. epidermidis, 25 μg per disk, zone minus disk diameter (6.0mm), read-out: Inhibition Zone Diameter (mm) ± SD), 2.6 ± 0.3 mm. The zone of inhibition at 250 µg/disc in the assay on Micrococcus luteus (Micrococcus luteus, M. luteus, 250 μg per disk, zone minus disk diameter (6.0mm), read-out: Inhibition Zone Diameter (mm) ± SD) came to 2.2 ± 1.9 mm; in assay [3] (Staphylococcus epidermidis, S. epidermidis, 250 μg per disk, zone minus disk diameter (6.0mm), read-out: Inhibition Zone Diameter (mm) ± SD) it was 3.3 ± 0.5 mm. For the same compound, the “MIC for C. neoformans” value in assay [4] came out at 3.1 µg/mL. In assay [4] (35° C., 48 hrs, RPMI with MOPS), the “Minimum inhibitory concentration (MIC) for the isolate of C. neoformans” value turned out to be 1.749 ± 0.1080 µg·mL. In addition, the MIC in assay [4] (Cryptococcus neoformans, read-out: MIC for C. neoformans) is 1.75 µg/mL. In assay [4] (across seven MIC assays), the MIC, C. neoformans amounted to 1.67 µg/mL. Also, in the assay with MRSA (10 μL of 0.01 mg/mL on disc), the zone of inhibition at 10 µg/mL was found to be 1 mm. For the same compound, in the assay with MRSA (10 μL of 0.1 mg/mL on disc), the zone of inhibition at 100 µg/mL was 1.5 mm. Besides, the zone of inhibition at 1000 µg/mL with MRSA (10 μL of 1.0 mg/mL on disc) came out at 2 mm.

The values above are taken from US11730717B1, “Melanin-inspired antimicrobial” (The Board of Regents for the Oklahoma Agricultural and …, priority 2020, dated 2023).
